Results: paper PMC8283659 (ACS chemical neuroscience, 2020)
Where two headings read alike, the source gives them in different places.

How the values were obtained:
DAT [1] = molecular target: DAT (Rattus norvegicus, UniProt P23977); assay: DAT radioligand binding assay; conditions: for pKi ± S.E.M. DAT [3H]WIN 35,428: mean ± S.E.M., 3 independent experiments
SERT = SERT (Rattus norvegicus, UniProt P31652); assay: SERT radioligand binding assay; conditions: for pKi ± S.E.M. SERT [3H]Citalopram: rat brain membranes (stem in methods), mean ± S.E.M., 3 independent experiments
Sequence of SERT (P31652 whole entry): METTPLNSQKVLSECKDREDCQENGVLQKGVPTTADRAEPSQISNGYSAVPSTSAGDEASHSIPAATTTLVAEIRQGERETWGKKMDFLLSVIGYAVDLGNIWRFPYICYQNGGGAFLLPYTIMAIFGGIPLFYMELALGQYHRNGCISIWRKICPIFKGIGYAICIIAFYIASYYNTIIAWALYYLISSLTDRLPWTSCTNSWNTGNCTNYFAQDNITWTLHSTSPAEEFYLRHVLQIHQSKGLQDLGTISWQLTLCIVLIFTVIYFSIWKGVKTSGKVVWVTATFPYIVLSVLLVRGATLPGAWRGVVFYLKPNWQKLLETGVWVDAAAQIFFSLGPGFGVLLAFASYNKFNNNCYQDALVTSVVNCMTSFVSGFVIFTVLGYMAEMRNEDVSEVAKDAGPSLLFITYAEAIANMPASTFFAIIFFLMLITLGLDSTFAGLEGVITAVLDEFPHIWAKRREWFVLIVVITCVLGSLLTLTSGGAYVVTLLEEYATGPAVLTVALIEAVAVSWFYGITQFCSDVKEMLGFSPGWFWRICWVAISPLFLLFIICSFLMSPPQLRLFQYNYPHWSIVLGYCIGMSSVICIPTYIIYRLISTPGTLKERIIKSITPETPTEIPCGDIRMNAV

DAT [2] = conditions: read-out: DAT Ki; cited from earlier work
NET = NET (Rattus norvegicus, UniProt Q63380); assay: NET radioligand binding assay
Sequence of NET (Q63380 1-617): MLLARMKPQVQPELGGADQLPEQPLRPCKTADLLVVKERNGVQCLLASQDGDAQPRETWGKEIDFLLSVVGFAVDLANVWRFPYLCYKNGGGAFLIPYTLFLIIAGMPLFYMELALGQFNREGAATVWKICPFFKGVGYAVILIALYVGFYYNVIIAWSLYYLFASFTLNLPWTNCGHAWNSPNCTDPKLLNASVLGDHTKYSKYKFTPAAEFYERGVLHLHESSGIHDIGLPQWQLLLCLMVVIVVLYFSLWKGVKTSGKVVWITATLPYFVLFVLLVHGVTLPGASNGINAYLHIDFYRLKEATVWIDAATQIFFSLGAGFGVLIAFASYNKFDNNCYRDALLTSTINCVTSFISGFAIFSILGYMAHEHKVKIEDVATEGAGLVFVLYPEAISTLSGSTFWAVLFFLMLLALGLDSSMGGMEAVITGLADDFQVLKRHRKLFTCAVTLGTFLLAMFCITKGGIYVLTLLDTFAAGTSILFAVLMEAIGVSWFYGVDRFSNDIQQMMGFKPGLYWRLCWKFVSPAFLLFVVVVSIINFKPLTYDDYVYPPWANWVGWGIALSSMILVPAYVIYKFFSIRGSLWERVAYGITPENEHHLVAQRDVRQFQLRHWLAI

human DAT (hDAT) = human DAT (hDAT) (Homo sapiens, UniProt Q01959); assay: [3H]dopamine uptake inhibition in CAD cells transiently expressing hDAT; type: cell-based
Sequence of human DAT (hDAT) (Q01959 whole entry): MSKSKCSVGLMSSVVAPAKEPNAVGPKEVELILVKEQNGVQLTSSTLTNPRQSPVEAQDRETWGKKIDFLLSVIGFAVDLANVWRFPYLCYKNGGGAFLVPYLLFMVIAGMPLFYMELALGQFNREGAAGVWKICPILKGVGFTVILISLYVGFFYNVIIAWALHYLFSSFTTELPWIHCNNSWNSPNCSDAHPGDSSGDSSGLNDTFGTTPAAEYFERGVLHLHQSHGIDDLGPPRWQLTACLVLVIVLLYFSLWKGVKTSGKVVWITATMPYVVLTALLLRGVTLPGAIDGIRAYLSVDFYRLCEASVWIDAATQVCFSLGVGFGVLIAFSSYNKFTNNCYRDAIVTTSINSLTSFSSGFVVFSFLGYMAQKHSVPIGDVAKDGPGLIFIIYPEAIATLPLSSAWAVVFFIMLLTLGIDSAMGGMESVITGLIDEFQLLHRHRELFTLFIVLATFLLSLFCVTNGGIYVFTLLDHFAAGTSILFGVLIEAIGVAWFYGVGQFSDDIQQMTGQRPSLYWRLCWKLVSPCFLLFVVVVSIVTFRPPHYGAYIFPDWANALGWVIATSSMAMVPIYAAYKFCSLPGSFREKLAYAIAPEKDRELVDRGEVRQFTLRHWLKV

EGFP-hDAT = EGFP-hDAT (Homo sapiens, UniProt Q01959); assay: TIRF microscopy of surface labeling of EGFP-hDAT-expressing CAD cells; type: cell-based; conditions: 10 nM ligand, 10 min, rt; fixed cells
Sequence of EGFP-hDAT (Q01959 whole entry): as above

[3] = read-out: Ki DAT [3H]WIN 35,428, rat striatum membranes, value in parentheses
[4] = IC50 DAT [3H]DA, value in parentheses
[5] = pIC50 ± S.E.M. DAT [3H]DA, 20 nM [3H]DA, 5 min, rt

Sequence of DAT (Rattus norvegicus, UniProt P23977) (P23977 whole entry): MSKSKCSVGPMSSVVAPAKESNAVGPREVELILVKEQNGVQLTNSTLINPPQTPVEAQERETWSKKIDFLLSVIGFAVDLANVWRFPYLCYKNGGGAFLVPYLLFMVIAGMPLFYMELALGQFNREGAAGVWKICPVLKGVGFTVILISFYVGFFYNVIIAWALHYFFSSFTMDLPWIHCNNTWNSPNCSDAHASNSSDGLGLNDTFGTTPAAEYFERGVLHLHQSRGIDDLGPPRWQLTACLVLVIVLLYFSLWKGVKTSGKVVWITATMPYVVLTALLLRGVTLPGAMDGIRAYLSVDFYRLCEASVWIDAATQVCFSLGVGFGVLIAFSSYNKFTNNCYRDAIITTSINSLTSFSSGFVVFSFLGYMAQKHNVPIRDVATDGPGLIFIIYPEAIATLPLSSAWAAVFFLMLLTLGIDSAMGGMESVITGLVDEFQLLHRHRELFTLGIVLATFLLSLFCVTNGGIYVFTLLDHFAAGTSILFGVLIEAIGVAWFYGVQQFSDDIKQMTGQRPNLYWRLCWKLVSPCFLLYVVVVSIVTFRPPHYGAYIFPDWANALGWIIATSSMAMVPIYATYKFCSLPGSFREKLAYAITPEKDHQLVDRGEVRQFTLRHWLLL

| Compound | pKi ± S.E.M. DAT [3H]WIN 35,428 (DAT [1]; rat striatum membranes) | Ki (DAT [1]; [3]) [nM] | pKi ± S.E.M. SERT [3H]Citalopram (SERT) | Ki (DAT [2]) [nM] | Ki (DAT [1]) [nM] | Ki (NET) [nM] | Ki (SERT) [nM] | IC50 (human DAT (hDAT); [4]) [nM] | IC50 (human DAT (hDAT); [5]) [nM] | surface labeling of EGFP-hDAT-expressing CAD cells, TIRF microscopy (in words) (EGFP-hDAT) | pIC50 ± S.E.M. DAT [3H]DA (human DAT (hDAT); 20 nM [3H]DA, 5 min, rt) |
| --- | --- | --- | --- | --- | --- | --- | --- | --- | --- | --- | --- |
| COC(=O)[C@H]1[C@@H](c2ccc(Cl)c(Cl)c2)C[C@@H]2CC[C@H]1N2C [Compound 1, reference compound] | 9.10 ± 0.23 | 0.8 | 7.99 ± 0.20 |  |  |  |  |  |  |  |  |
| CCN(CC)c1ccc2c(-c3ccc(S(=O)(=O)NCCCCCC(=O)NCCN4C5CCC4[C@@H](C(=O)OC)[C@@H](c4ccc(Cl)c(Cl)c4)C5)cc3S(=O)(=O)[O-])c3ccc(=[N+](CC)CC)cc-3oc2c1 (some centres unmarked) [Compound 2, reference compound] | 7.79 ± 0.09 | 16 | 7.80 ± 0.08 | 18 |  |  |  |  |  |  |  |
| COC(=O)[C@H]1[C@@H](c2ccc(Cl)c(Cl)c2)C[C@@H]2CC[C@H]1N2CCOCCOCCNC(=O)c1ccc(C(=O)[O-])c(-c2c3ccc(=[N+]4CCC4)cc-3oc3cc(N4CCC4)ccc23)c1 [Compound 3, 2-(3-(Azetidin-1-ium-1-ylidene)-6-(azetidin-1-yl)-3H-xanthen-9-yl)-4-((2-(2-(2-((1R,2S,3S,5S)-3-(3,4-dichlorophenyl)-2-(methoxycarbonyl)-8-azabicyclo[3.2.1]octan-8-yl)ethoxy)ethoxy)ethyl)carbamoyl)benzoate] |  |  |  |  | 6.03 | 225 | 41.7 | 28 | 28.2 | surface labeling was observed |  |
| COC(=O)[C@H]1[C@@H](c2ccc(Cl)c(Cl)c2)C[C@@H]2CC[C@H]1N2CCOCCOCCOCCOCCOCCNC(=O)c1ccc2c(c1)C1(OC2=O)c2ccc(N3CCC3)cc2[Si](C)(C)c2cc(N3CCC3)ccc21 [Compound 4, Methyl (1R,2S,3S,5S)-8-(1-(3,7-di(azetidin-1-yl)-5,5-dimethyl-3’-oxo-3’H,5H-spiro[dibenzo[b,e]siline-10,1’-isobenzofuran]-6’-yl)-1-oxo-5,8,11,14,17-pentaoxa-2-azanonadecan-19-yl)-3-(3,4-dichlorophenyl)-8-azabicyclo[3.2.1]octane-2-carboxylate] | 7.55 ± 0.03 | 28 | 7.37 ± 0.05 |  |  |  |  |  |  | surface labeling was observed | 6.99 ± 0.15 |
| COC(=O)[C@H]1[C@@H](c2ccc(Cl)c(Cl)c2)C[C@@H]2CC[C@H]1N2CCOCCOCCNC(=O)c1ccc2c(c1)C1(OC2=O)c2ccc(N3CCC3)cc2[Si](C)(C)c2cc(N3CCC3)ccc21 [Compound 10, Methyl (1R,2S,3S,5S)-8-(2-(2-(2-(3,7-di(azetidin-1-yl)-5,5-dimethyl-3’-oxo-3’H,5H-spiro[dibenzo[b,e]siline-10,1’-isobenzofuran]-6’-carboxamido)ethoxy)ethoxy)ethyl)-3-(3,4-dichlorophenyl)-8-azabicyclo[3.2.1]octane-2-carboxylate] |  |  |  |  | 112 | 468 | 153 | 1150 | 1150 |  |  |
| COC(=O)[C@H]1[C@@H](c2ccc(Cl)c(Cl)c2)C[C@@H]2CC[C@H]1N2CCN1CCN(CCCCNC(=O)c2ccc3c(c2)C2(OC3=O)c3ccc(N4CCC4)cc3[Si](C)(C)c3cc(N4CCC4)ccc32)CC1 [Compound 14, Methyl (1R,2S,3S,5S)-8-(2-(4-(4-(3,7-di(azetidin-1-yl)-5,5-dimethyl-3’-oxo-3’H,5H-spiro[dibenzo[b,e]siline-10,1’-isobenzofuran]-6’-carboxamido)butyl)piperazin-1-yl)ethyl)-3-(3,4-dichlorophenyl)-8-azabicyclo[3.2.1]octane-2-carboxylate] |  |  |  |  | 38 | 1200 | 38 | 160 | 158 | the labeling was very punctate |  |
